One data set deals with HeLa, PANC-1, and A549. The experiment in a line: Cytotoxicity against cell line panel (summary statements). It is filed as cell-based. The conditions noted are these: Homo sapiens; summary of Table 2; cell line not specified; read-out: Inhibition on cell viability, IC50. As to the method: (§1) The CCK-8 assay was used to determine cell viability. Test samples were dissolved in dimethyl sulfoxide (DMSO) to make stock solutions and further diluted in culture medium for assays. Human cancer cell lines (HeLa, PANC-1, and A549) were cultured in RPMI 1640, DMEM or DMEM/F12 (1:1) medium containing 10% fetal bovine serum. Cells were maintained at 37 °C in a humidified environment under 5% CO2. Cell proliferation assays were performed as previously described. Briefly, each cell line was seeded in a 96-well tissue culture plate at a predetermined density in 180 µL of complete medium, attached overnight and treated with test compound for 72 h. Then the medium was discarded and replaced with 10% CCK-8 in complete medium and the plates incubated for another 2 h. OD450 was measured with a SpectraMAX 190 spectrophotometer (MDS, Sunnyvale, CA, USA). Background absorbance was subtracted for all wells. Inhibition rate (IR) was determined. IR (%) = (ODDMSO − ODcompound)/ODDMSO × 100%.

Another data set deals with HeLa. In words: CCK-8 cytotoxicity assay, HeLa. It is filed as cell-based. The conditions noted are these: Homo sapiens, CCK-8, 72 h treatment. How it is done:
as §1
A general note: Tetrazolium assays rely on reduction of a dye to a coloured formazan, in cell work by metabolically active cells.

Data set [1] is described as follows: CCK-8 cytotoxicity assay, immortalized HL7702 normal liver cells. It is filed as cell-based. The conditions noted are these: immortalized HL-7702 normal liver cells; CCK-8, 72 h treatment; normal human liver cells, selectivity.
Another data set has as its system HeLa cells. In words: Flow cytometry analysis of apoptosis and cell cycle arrest (PI staining). It is filed as cell-based, human. The conditions noted are these: 24 h, FACS. How it is done:
Figure 3 Effects of 1, 5, 16, and 17 on cell cycle and apoptosis. HeLa cells were treated with indicated chemicals. After 24 h of treatment, the cells were harvested, fixed in 70% EtOH, and stained with PI. The cell cycle and apoptosis rate were detected by FACS. Etoposide is used as positive control; (A) Cell cycle attribution of HeLa cells under different concentration treatment; (B) Apoptotic rates were acquired from Sub-G1 fraction from A.
Hypodiploid DNA and cell cycle arrest were evaluated as described previously. Briefly, after treatment of HeLa cancer cells with vehicle (0.1% DMSO) or test compound at the indicated concentrations and times, the cells were harvested by trypsinization and fixed with 70% (v/v) alcohol at 4 °C for 30 min. After washing with PBS, RNase (10 µg/mL) was added and incubated for 15 min at 37 °C to eliminate RNA interference. The cells were then treated with propidium iodide (PI) for another 30 min. The cells were washed, and the DNA content determined using FACSCalibur.

Another data set concerns PANC-1. In words: CCK-8 cytotoxicity assay, PANC-1. It is filed as cell-based. The conditions noted are these: Homo sapiens, CCK-8, 72 h treatment. As to the method: as §1
A further data set concerns A549. In words: CCK-8 cytotoxicity assay, A549. It is filed as cell-based. The conditions noted are these: Homo sapiens, CCK-8, 72 h treatment. As to the method:
as §1

The subject of data set [2] is HeLa cells (PARP, caspase-3, LC3B, p62). In words: Western blot of apoptosis and autophagy related proteins. It is filed as cell-based, human. The conditions noted are these: 24 h. How it is done:
Figure 4 Effects of 1, 5, 16, and 17 on apoptosis and autophagy related proteins. Western blots of p62, LC3B, PARP, Caspase 3, and GAPDH of HeLa cells after 24 h treatment with 1, 5, 16, and 17. Etoposide was used as positive control.
Cell lysate was prepared in RIPA buffer and quantified by the bicinchoninic acid (BCA) method (Pierce, Rockford, IL, USA). Thirty micrograms of protein per sample was loaded onto a 4%~12% NuPAGE® Novex SDS gel. Protein was transferred using an iBlot® dry blotting device onto nitrocellulose membranes. After blocking nonspecific binding with TBS/Tween20 (0.1%) (TBS/T) containing 5% non-fat milk for 1 h at room temperature, the membrane was incubated in LC3B (Sigma, L7543), SQSTM1/p62 (MBL, PM045), PARP (CST #9542P, Cell Signaling Technology, Shanghai, China), or caspase-3 (CST #9662P, Cell Signaling Technology) (1:1000 in TBS/T containing 3% bovine serum albumin (BSA) in all cases) with gentle shaking at 4 °C overnight. Membranes were washed three times with TBS/T to remove unbound antibody and then incubated with secondary antibody (HRP-conjugated goat anti-mouse IgG or goat anti-rabbit IgG (1:5000) for 1 h at room temperature. Protein bands were visualized with an enhanced chemiluminescence kit (ECL, Pierce).
In general terms: In western blotting, separated proteins are transferred to a membrane and probed.

Data set [3] relates to HeLa cells stably expressing GFP-LC3. The experiment in a line: GFP-LC3 puncta imaging. It is filed as cell-based, human. The conditions noted are these: HeLa-GFP-LC3 cells, 10, 20 µM, 24 h, confocal images. How it is done: Figure 5 Xanthone V1 (17) induces GFP-LC3 puncta formation in HeLa cells. HeLa cells stably expressing GFP-LC3 were seeded in a 96-well dish and treated with 10, 20 µM 17 for 24 h. (A) The number of GFP-LC3 puncta in each samples were calculated by Columbus software. The number was averaged of cells from three wells; (B) The images of GFP-LC3 puncta after 10, 20 µM treatment Xanthone V1 were acquired by an Opera (GFP ex and em) with a 40×-H2O objective. Left Panel: the original GFP-LC3 puncta; Right panel: the spots were auto-analyzed by Columbus software.
HeLa cells stably expressing GFP-LC3 were generated as previously described. Briefly, HeLa cells were transfected with pEGFP-LC3 plasmid using Lipofectamine 2000 (11668-019, Invitrogen, Carlsbad, CA, USA). One day after transfection, the cells were treated with 800 μg/mL G418 for 7 days. Surviving cells (termed HeLa-GFP-LC3 below) were continually cultured with 800 μg/mL G418. HeLa-GFP-LC3 cells were seeded in a 96-well plate overnight (clear bottom, black, Perkin-Elmer, Waltham, MA, USA). The cells were then treated with test compounds in triplicate. After 48 h, the cells were fixed with 4% paraformaldehyde and washed three times with PBS. […] The data were analyzed using Columbus 2.3 software (Perkin-Elmer). To quantify GFP-LC3 spots, the following procedures were performed: 1. […]

Each structure is given as a SMILES string.

Consider `CC(C)=CCc1c(O)c(O)c2oc3c(CC=C(C)C)c(O)ccc3c(=O)c2c1O` [Compound 1, 1,3,4,6-tetrahydroxy-2,5-di(3-methylbut-2-enyl)-xanthone], for which the IC50 – broadly, the point on the concentration scale where inhibition reaches its midpoint – in the data set with HeLa, PANC-1, and A549 was less than 10 µM; with HeLa, 8.09 ± 0.78 µM; with PANC-1 it was 14.8 ± 8.68 µM; in the data set with A549 it was 12.6 ± 4.3 µM. The compound further came in with an IC50 at 72 h in data set [1] of 11 ± 4.36 µM. Also, the “Cell cycle arrest phase” value with HeLa cells was “at the G2/M phase”.
With `CC(C)=CCc1c2c(c3oc4c(O)c(O)ccc4c(=O)c3c1O)C=CC(C)(C)O2` [Compound 5, 1,5,6-trihydroxy-2-prenyl-6′,6′-dimethyl-2H-pyrano(2′,3′:3,4)xanthone], the IC50 in the data set with HeLa, PANC-1, and A549 was less than 10 µM; in the data set on HeLa it was 7.06 ± 0.71 µM; in the data set on PANC-1, 9.32 ± 4.58 µM; in the data set on A549, 8.19 ± 0.99 µM. Half-maximal inhibition in data set [1] (IC50 at 72 h) was put at 10.5 ± 4.12 µM. Further, the “Cell cycle arrest phase” value in the data set with HeLa cells was “cell cycle arrest at the S phase in a dose-dependent fashion”. Also, in data set [2], the PARP cleavage entry is recorded as “activated PARP cleavage”.
Consider `C=C(C)C(O)C[C@H](C[C@@]12C[C@@H](CC=C(C)C)C(C)(C)[C@@](CC=C(C)C)(C(=O)C(C(=O)c3ccc(O)c(O)c3)=C1O)C2=O)C(=C)C` (stereo partly shown) [Compound 8, garcimultiflorone E], for which the IC50 is less than 10 µM with HeLa, PANC-1, and A549; 17.6 ± 1.45 µM in the data set with HeLa; 17.7 ± 1.56 µM in the data set on PANC-1; 7.57 ± 0.57 µM with A549. The IC50 at 72 h in data set [1] is 7.34 ± 0.65 µM.
For `C=C(C)C(CC=C(C)C)C[C@@]12C[C@@H](CC=C(C)C)C(C)(C)[C@@](CC=C(C)C)(C1=O)c1oc3cc(O)c(O)cc3c(=O)c1C2=O` (stereo partly shown) [Compound 15, symphonone H], in that order: less than 10 µM, 9.83 ± 0.61 µM, 11.2 ± 4.89 µM, 6.27 ± 0.71 µM and 3.96 ± 2.38 µM.
In the case of `CC1(C)C=Cc2c(cc3oc4c(O)c(O)ccc4c(=O)c3c2O)O1` [Compound 16, jacareubin], the IC50 in the data set on HeLa, PANC-1, and A549 was less than 10 µM; in the data set on HeLa, 1.09 ± 0.67 µM; in the data set on PANC-1, 10.1 ± 7.91 µM; with A549, 6.9 ± 2.23 µM. Also, it took 5.5 ± 1.79 µM to reach half-maximal inhibition in data set [1] (IC50 at 72 h). In the data set with HeLa cells, the “Cell cycle arrest phase” value was “at the G2/M phase”. Moreover, the “Induction of apoptosis (Sub-G1 fraction)” value in the data set with HeLa cells is “induced apoptosis”. Moreover, the PARP cleavage result in data set [2] is given as “activated PARP cleavage”.
On to `CC(C)=CCc1c2c(c(O)c3c(=O)c4ccc(O)c(O)c4oc13)C=CC(C)(C)O2` [Compound 17, xanthone V1], for which, in the data set on HeLa, PANC-1, and A549, the IC50 is less than 10 µM. Moreover, the GFP-LC3 puncta formation entry in data set [3] is “an increase in GFP-LC3 puncta was observed”. In the data set with HeLa, this compound showed an IC50 of 4.71 ± 0.52 µM. Further, in data set [1], inhibition was half-maximal at 9.5 ± 3.74 µM (IC50 at 72 h). In the data set on HeLa cells, the “Cell cycle arrest phase” value is given as “at the G1 phase” and the “Induction of apoptosis (Sub-G1 fraction)” value was “induced apoptosis”. Further, the midpoint of inhibition with PANC-1, the IC50, lay at 6.56 ± 2.55 µM. In addition, in data set [2], the “Conversion of LC3-I to LC3-II” value was “increased the conversion of LC3-I to LC3-II”, the PARP cleavage result is listed as “activated PARP cleavage” and the p62 level result is “p62 reduction”. Further, the IC50 in the data set with A549 turned out to be 11.8 ± 6.29 µM.
On to `COc1cc([C@@H]2c3cc4c(cc3[C@@H](O[C@@H]3O[C@@H]5CO[C@@H](C)O[C@H]5[C@H](O)[C@H]3O)[C@H]3COC(=O)[C@H]23)OCO4)cc(OC)c1O` [Etoposide, reference compound], for which the IC50 with HeLa came out at 2.91 ± 0.16 µM; in the data set with PANC-1, 22.8 ± 1.93 µM; in the data set on A549, 1.31 ± 0.09 µM. In data set [1], this compound displayed an IC50 at 72 h of 1.42 ± 0.13 µM.

The values are drawn from PMC6272390, “Xanthones from the Leaves of Garcinia cowa Induce Cell Cycle Arrest, Apoptosis, and Autophagy in Cancer Cells” (Molecules, 2015).
